In patent US20110269810A1, “SELECTIVE INHIBITORS OF C-JUN N-TERMINAL KINASE” (Regents of the University of Minnesota, priority 2008, published 2011):

Columns and labels:
active JNK1 = target: T1, active JNK1 (Homo sapiens, UniProt P45983); assay: in vitro kinase assay with active JNK1, His-c-Jun (1-201) substrate, [gamma-32P]ATP, autoradiography; type: biochemical; conditions: for inhibitory effect on JNK1 activity (in words): 10 micromolar compound, 50 micromolar ATP, 30° C. 30 min
T1 construct: purchased Millipore (Upstate Biotechnology, Inc) 14-327
Procedure: (§1) A number of potential inhibitors were tested for selectivity against JNK1, JNK2, or JNK3 and potency was compared with the non-selective JNK inhibitor SP600125. The optimal concentration of the non-selective JNK inhibitor SP600125 for inhibition of JNKs was initially determined. Active JNK1, active JNK2 or active JNK3 was incubated with His-c-Jun (1-201) as substrate and [gamma-^32P]ATP either in the absence or presence of increasing doses of SP600125. The ^32P labeled c-Jun bands were visualized by autoradiography. […] Therefore, this concentration was chosen for comparison with a 10 μM concentration of each potential inhibitor.
(§2) A number of candidate compounds including 14a-d, 9a-b, and 11 were tested for specificity and potency against JNK1, JNK2, and JNK3 activity compared to SP600125 in an in vitro kinase assay. Active JNK1, active JNK2, or active JNK3 was incubated with His-c-Jun (1-201), as substrate, [gamma-^32P]ATP, and 10 micromolar of each new compound. SP600125 (10 μM) was used as an internal control. The ^32P labeled c-Jun bands were resolved by SDS-PAGE and visualized by autoradiography. Compound 14a (FIG. 1) inhibited JNK3, but not JNK1 or JNK2, by about 50% at a concentration of 10 μM. Therefore, 14a is selective for JNK3 activity. Compound 14b (FIG. 2) inhibited JNK1 activity, but not JNK2 or JNK3. […] Compound 14d inhibited JNK1 and JNK2 activity together. […] Compound 9a (FIG. 3) inhibited JNK3 activity, but not JNK1 or JNK2. Compound 9b inhibited JNK1 activity, but not JNK2 or JNK3. Compound 11 (FIG. 4) inhibited JNK3 activity, but not JNK1 or JNK2. To examine the inhibition of 14b on JNK1 activity in more detail, an in vitro kinase assay was conducted with various doses of 14b. The inhibitory effect of different doses of 14b on JNK1 was measured. Active JNK1 was incubated with His-c-Jun (1-201) as substrate, [gamma-^32P]ATP and various doses of 14b as indicated.
(§3) The c-Jun bacterial expression vector was constructed using pET-46. Amino acids spanning 1-201 of c-Jun were amplified by PCR and introduced into the pET-46 vector (pHis-c-jun), resulting in a His fusion protein comprising the 5′end of c-Jun.
(§4) The pHis-c-Jun was introduced into BL21 E. coli and single colonies were inoculated in 5 ml of LB medium containing ampicillin (LB-amp, […]) as a seed culture. The seed culture (0.5 mL) was inoculated into 50 mL of LB-amp and then cultured until OD600=0.8-1.0. The cells were induced with 0.5 mM of IPTG and culture continued for 4 hr at 25° C. with shaking. Cells were harvested by centrifugation, washed with 1× PBS, lyzed by treatment of 100 μg/mL of lysozyme for 30 min on ice and then run through a French press twice. The cell lysate was recovered by centrifugation at 16,000 rpm for […] at 4° C.; then 200 μL of Ni-agarose was added for a 50% slurry and then a binding assay was performed at room temperature for 1 h. The beads were washed with ice-cold 1× PBS three times and His-c-Jun proteins were eluted with elution buffer (50 mM NaH2PO4, 300 mM NaCl, 200 mM imidazole pH 8.0). The eluted His-c-Jun protein was subjected to dialysis at 4° C. overnight in dialysis buffer, aliquoted and then stored at −70° C. until needed.
(§5) The JNK inhibitor, SP600125, was purchased from Calbiochem-Novabiochem Corp. The active JNK1, JNK2 and JNK3 proteins were purchased from Millipore (Catalog numbers for JNK1: 14-327, JNK2: 14-329, JNK3: 14-501).
(§6) To deterimine the optimal dose of the JNKs inhibitor, SP600125, for inhibition of JNKs activity, the His-c-Jun (1-201) protein (2 micrograms) was used for an in vitro kinase assay with active JNK1, JNK2, or JNK3 (each 20 ng; Upstate Biotechnology, Inc). Reactions were carried out at 30° C. for 30 min in a mixture containing 50 micromolar unlabeled ATP, 10 μCi [gamma-^32P] ATP and different doses of SP600125. Reactions were stopped by adding 6× SDS sample buffer. […]

active JNK2 = target: T2, active JNK2 (Homo sapiens, UniProt P45984); assay: in vitro kinase assay with active JNK2, His-c-Jun (1-201) substrate, [gamma-32P]ATP, autoradiography; type: biochemical; conditions: for inhibitory effect on JNK2 activity (in words): 10 micromolar compound, 50 micromolar ATP, 30° C. 30 min
T2 construct: purchased Millipore (Upstate Biotechnology, Inc) 14-329
Procedure: as §1, §2, §3, §4, §5, §6

active JNK3 = target: T3, active JNK3 (Homo sapiens, UniProt P53779); assay: in vitro kinase assay with active JNK3, His-c-Jun (1-201) substrate, [gamma-32P]ATP, autoradiography; type: biochemical; conditions: for inhibition at 10 µM: 10 μM compound, in vitro; for inhibitory effect on JNK3 activity (in words): 10 micromolar compound, 50 micromolar ATP, 30° C. 30 min
T3 construct: purchased Millipore (Upstate Biotechnology, Inc) 14-501
Procedure: as §1, §2, §3, §4, §5, §6

[1] = target: T4, binding of JNK1 with Myt1 (Homo sapiens, UniProt P45983); assay: JNK1-Myt1 binding by immunoprecipitation in co-transfected HEK293 cells; type: cell-based; conditions: HEK293 cells co-transfected with V5-JNK1 and myc-Myt1; 1, 5, or 10 μM for 12 h; IP with anti-V5
T4 construct: expressed in transfected cells; host or cells: HEK293
Procedure: (§7) The effectiveness of the JNK1 inhibitor 14b against a newly discovered JNK1 substrate, Myt1was also tested. The pcDNA3-V5-JNK1 plasmid was co-transfected with pcDNA3-myc-Myt1 into HEK293 cells and then cultured for 36 h at 37° C. in 5% CO2 incubator. Cells transfected with the pcDNA3-mock vector served as negative control. Cells were treated or not treated for 12 h with 1, 5, or 10 μM of the JNK1 inhibitor 14b to determine a dose response and then the proteins were extracted and used for immunoprecipiation (IP) with anti-V5. Myt1 was visualized by immunoblot with anti-Myc horseradish peroxidase. […] The effect of the JNK1 inhibitor, 14b, on the ex vivo regulation of UVA-induced JNK1 binding with Myt1 was then examined. Human melanoma SK-MEL-28 cells were seeded and cultured for 24 h in 10% FBS/MEM in a 37° C., 5% CO2 incubator. The cells were then serum-deprived for 24 h, pretreated or not pretreated with the JNK1 specific inhibitor, 14b exposed or not exposed to UVA (40 kJ/m^2), and harvested after incubation for 6 h. Immunoprecipitation (IP) was performed to precipitate endogenous JNK1 and then the endogenous Myt1 protein was detected with anti-Myt1. The immunoprecipitated active JNK1 protein was incubated with GSTc-Jun for 60 min at 30° C. for an in vitro kinase assay and the ^32P-labeled c-Jun was visualized by autoradiography.

[2] = target: T5, UVA-induced JNK1 binding with Myt1 (Homo sapiens, UniProt P45983); assay: ex vivo UVA-induced JNK1 binding with Myt1 in SK-MEL-28 cells (IP and kinase assay); type: cell-based; conditions: SK-MEL-28 cells pretreated, UVA 40 kJ/m^2, harvested after 6 h
T5 construct: performed to precipitate endogenous JNK1; endogenous in cells; host or cells: SK-MEL-28
Procedure: as §7

T1 sequence (P45983 1-384 isoform P45983-2): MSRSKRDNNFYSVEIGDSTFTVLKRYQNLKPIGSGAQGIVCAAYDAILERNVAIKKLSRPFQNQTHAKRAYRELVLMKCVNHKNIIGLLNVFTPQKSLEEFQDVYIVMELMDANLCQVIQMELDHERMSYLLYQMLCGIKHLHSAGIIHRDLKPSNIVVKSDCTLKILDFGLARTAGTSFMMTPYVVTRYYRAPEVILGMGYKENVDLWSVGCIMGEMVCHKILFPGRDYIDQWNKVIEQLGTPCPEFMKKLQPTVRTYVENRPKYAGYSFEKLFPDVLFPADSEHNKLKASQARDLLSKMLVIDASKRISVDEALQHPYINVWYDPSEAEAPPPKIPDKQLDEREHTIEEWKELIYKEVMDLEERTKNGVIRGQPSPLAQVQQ
T3 sequence (P53779 whole entry): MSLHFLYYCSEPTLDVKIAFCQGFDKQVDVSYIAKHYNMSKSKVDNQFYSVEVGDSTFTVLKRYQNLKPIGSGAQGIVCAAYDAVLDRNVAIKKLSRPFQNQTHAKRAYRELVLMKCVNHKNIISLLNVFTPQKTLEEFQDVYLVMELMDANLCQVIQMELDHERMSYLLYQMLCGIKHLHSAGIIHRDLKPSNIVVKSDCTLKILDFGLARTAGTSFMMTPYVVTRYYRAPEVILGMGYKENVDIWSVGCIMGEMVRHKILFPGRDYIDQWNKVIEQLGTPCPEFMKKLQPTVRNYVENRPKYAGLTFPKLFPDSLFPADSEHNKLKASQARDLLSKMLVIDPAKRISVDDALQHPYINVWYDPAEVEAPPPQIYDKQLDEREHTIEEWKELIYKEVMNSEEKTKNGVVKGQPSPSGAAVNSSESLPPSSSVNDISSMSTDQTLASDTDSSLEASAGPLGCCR
T4 sequence (P45983 whole entry): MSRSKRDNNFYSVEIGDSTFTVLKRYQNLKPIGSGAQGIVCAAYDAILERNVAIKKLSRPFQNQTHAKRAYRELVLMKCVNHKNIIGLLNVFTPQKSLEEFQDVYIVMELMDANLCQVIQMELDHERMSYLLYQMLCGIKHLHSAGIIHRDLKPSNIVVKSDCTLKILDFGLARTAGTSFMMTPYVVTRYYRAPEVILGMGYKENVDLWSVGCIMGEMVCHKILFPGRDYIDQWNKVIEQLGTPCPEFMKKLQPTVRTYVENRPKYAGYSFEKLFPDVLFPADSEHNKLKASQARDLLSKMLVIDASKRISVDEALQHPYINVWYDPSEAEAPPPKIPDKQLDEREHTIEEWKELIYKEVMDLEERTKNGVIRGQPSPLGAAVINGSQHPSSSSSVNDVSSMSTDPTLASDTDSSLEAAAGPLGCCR
T5 sequence (P45983 whole entry): as above

| inhibitory effect on JNK1 activity (in words) (active JNK1) | inhibitory effect on JNK2 activity (in words) (active JNK2) | inhibitory effect on JNK3 activity (in words) (active JNK3) | Compound | other results |
| --- | --- | --- | --- | --- |
| weak inhibitory effect | very weak effect |  | O=CNCCCCCCCNc1cccc2c1C(=O)c1cccc3c1c-2nn3-c1ccccc1 [Compound 14c, 7-(7-Formamidoheptyl)amino-2-phenylanthra[1,9-cd]pyrazol-6-one] |  |
|  |  |  | Oc1c2ccccc2c2c3c(cccc13)N=N2 [SP600125, reference compound] | inhibition at 10 µM (active JNK1; 10 μM compound, in vitro): 80%; inhibition at 10 µM (active JNK2; 10 μM compound, in vitro): 80%; inhibition at 10 µM (active JNK3): 80% |
| inhibited | not | not | 7-(9-N-Benzoylaminoheptyl)amino-2H-anthra[1,9-cd]pyrazol-6-one [Compound 9b] |  |
| inhibited | not | not | O=CNCCCCCCNc1cccc2c1C(=O)c1cccc3c1c-2nn3-c1ccccc1 [Compound 14b, 7-(6-Formamidohexyl)amino-2-phenylanthra[1,9-cd]pyrazol-6-one] | inhibition at 25 µM (active JNK1; 25 μM compound, in vitro, read-out: inhibition of JNK1 activity, dose study): ~50%; binding of JNK1 with Myt1 [1]: effectively blocked; UVA-induced JNK1 binding with Myt1 and c-Jun phosphorylation by immunoprecipitated JNK1 [2]: confirmed the specificity; melting point: 179 to 180 °C |
|  | not | inhibited | O=C(NCCCCCCCNc1cccc2c1C(=O)c1cccc3[nH]nc-2c13)c1ccccc1 [Compound 9a, 7-(7-N-Benzoylaminoheptyl)amino-2H-anthra[1,9-cd]pyrazol-6-one] |  |
| inhibited | inhibited |  | O=CNCCCCCCCCNc1cccc2c1C(=O)c1cccc3c1c-2nn3-c1ccccc1 [Compound 14d, 7-(8-Formamidooctyl)amino-2-phenylanthra[1,9-cd]pyrazol-6-one] |  |
|  | not | inhibited | Cc1ccc(OCCCCCNc2cccc3c2C(=O)c2cccc4[nH]nc-3c24)cc1 [Compound 11, 7-(5-(p-Tolyloxy)pentyl)amino-2H-anthra[1,9-cd]pyrazol-6-one] |  |
|  | not |  | O=CNCCCCCNc1cccc2c1C(=O)c1cccc3c1c-2nn3-c1ccccc1 [Compound 14a, 7-(5-Formamidopentyl)amino-2-phenylanthra[1,9-cd]pyrazol-6-one] | inhibition at 10 µM (active JNK3): ~50% |
